Results: US9737493B2, “Compositions and methods for modulating DNMT1 inhibitor activity” (University of Louisville Research Foundation, Inc., priority 2012, dated 2017)

Legend:
[1] = tested on: U937 cells; assay: GSH-Glo reduced glutathione content assay; assay type: cell-based, human; settings: U937, 1 μM XB05, 24 h
Procedure: (§1) FIG. 8: XB05 Modulates Cellular Stress Responses. (A) A luminescence-based assay for reduced glutathione (GSH) content in cells treated 24 h with XB05 (1 μM for U937 and Hs27, or 2 μM for A549), in the absence or presence of 5 mM GSH. Some cells were treated with buthionine sulfoximine (BSO, 200 μM) plus diethyl maleate (DEM, 1 mM) for 3 h as a positive control for GSH depletion. Bar graph indicates mean+/−SEM from three independent experiments. […] (C) Western blot for Nrf2 in nuclear extracts from cells treated as in part A for either 8 h or 24 h. Membranes were stripped and reprobed for Ku-70 as a loading control. (D) Western blot for phospho-eIF2α (Ser51), total eIF2-α, BiP/Grp78, and GAPDH (loading control) in whole cell extracts from cell lines treated as indicated for 24 h with concentrations of XB05 described in part A. Thapsigargin (TG, 2 μM) was used as a positive control for induction of endoplasmic reticulum (ER) stress.
(§2) Reduced Glutathione Content Analyses. After treatment as indicated in the figures and in the Brief Description of the Drawings, cells were harvested as described, counted and dispensed at a density of 10,000 cells/well in triplicate on a 96-well white, opaque bioluminescence plate (Corning). Cellular content of reduced glutathione (GSH) was analyzed using the GSH-Glo® Glutathione Assay Kit (Promega) according to the manufacturer's instructions. The chemiluminescent signal was quantified on a Biotek Synergy HT plate-reader (Biotek, Winooski, Vt.) using an integration time of 1 s/well.

[2] = tested on: A549 cells; assay: GSH-Glo reduced glutathione content assay; assay type: cell-based, human; settings: A549, 2 μM XB05, 24 h
Procedure: as §1, §2

[3] = tested on: Hs27 cells; assay: GSH-Glo reduced glutathione content assay; assay type: cell-based, human; settings: Hs27, 1 μM XB05, 24 h
Procedure: as §1, §2

[4] = tested on: U937 cells; assay: Alkaline comet assay; assay type: cell-based, human; settings: U937, 72 h
Procedure: (§3) FIG. 11: XB05 Induces DNA Damage in Malignant Cells. (A) Alkaline comet assays for detection of DNA damage for cells treated as indicated for 72 h. TBHP was a positive control for oxidative DNA damage. Decreased DNA fluorescence in nucleoid comet heads (arrows) and increased smearing of DNA into comet tails (asterisks) is indicated. Scale bar, 400 μm. Data shown are representative of at least two individual experiments for each cell line. (B) Western blot analysis for γ-H2AX and GAPDH (loading control) in whole cell extracts from cells treated with vehicle, UV irradiation (800 μJ, positive control for DSBs), or XB05 (1 μM for U937, 2 μM for A549) after 24 h. Images shown are representative of three individual experiments in each cell line. (C) Flow cytometric detection of γ-H2AX in cells treated as described in part B. Bar graph represents mean+/−SEM for 3 individual experiments in each cell line. Statistical comparison indicated significant differences between vehicle and XB05-treated groups in both cell lines (*p≦0.05).
(§4) Comet Assays. Cells were washed once with ice cold PBS, harvested as described and re-suspended at 1×10^5 cells/mL in PBS. As a positive control, cells were incubated with 100 μM tert-butyl hydrogen peroxide (TBHP) for 30 mins (U937, A549) or 1 h (Hs27) at 4° C. prior to harvesting. Comet assays were performed using the CometAssay Kit (Trevigen, Gaithersburg, Md.) according to the manufacturer's instructions. Cells were visualized and digital images captured on an EVOSfI Digital Fluorescent Microscope equipped with a fluorescein light cube.

[5] = tested on: A549 cells; assay: Alkaline comet assay; assay type: cell-based, human; settings: A549, 72 h
Procedure: as §3, §4

[6] = tested on: Hs27 cells; assay: Alkaline comet assay; assay type: cell-based, human; settings: Hs27, 72 h
Procedure: as §3, §4

[7] = target: recombinant human DNMT1 (Homo sapiens, UniProt P26358); assay: DNMT1 activity assay; assay type: biochemical; settings: recombinant human DNMT1 or nuclear extracts from treated cells
Text: The assays use recombinant Human DNMT1 (FIG. 19A) or nuclear extracts prepared from cells treated with XB05 (BX11) or 5-Aza (5-azacytidine) (FIG. 19B).

Chain of recombinant human DNMT1 (P26358 whole entry): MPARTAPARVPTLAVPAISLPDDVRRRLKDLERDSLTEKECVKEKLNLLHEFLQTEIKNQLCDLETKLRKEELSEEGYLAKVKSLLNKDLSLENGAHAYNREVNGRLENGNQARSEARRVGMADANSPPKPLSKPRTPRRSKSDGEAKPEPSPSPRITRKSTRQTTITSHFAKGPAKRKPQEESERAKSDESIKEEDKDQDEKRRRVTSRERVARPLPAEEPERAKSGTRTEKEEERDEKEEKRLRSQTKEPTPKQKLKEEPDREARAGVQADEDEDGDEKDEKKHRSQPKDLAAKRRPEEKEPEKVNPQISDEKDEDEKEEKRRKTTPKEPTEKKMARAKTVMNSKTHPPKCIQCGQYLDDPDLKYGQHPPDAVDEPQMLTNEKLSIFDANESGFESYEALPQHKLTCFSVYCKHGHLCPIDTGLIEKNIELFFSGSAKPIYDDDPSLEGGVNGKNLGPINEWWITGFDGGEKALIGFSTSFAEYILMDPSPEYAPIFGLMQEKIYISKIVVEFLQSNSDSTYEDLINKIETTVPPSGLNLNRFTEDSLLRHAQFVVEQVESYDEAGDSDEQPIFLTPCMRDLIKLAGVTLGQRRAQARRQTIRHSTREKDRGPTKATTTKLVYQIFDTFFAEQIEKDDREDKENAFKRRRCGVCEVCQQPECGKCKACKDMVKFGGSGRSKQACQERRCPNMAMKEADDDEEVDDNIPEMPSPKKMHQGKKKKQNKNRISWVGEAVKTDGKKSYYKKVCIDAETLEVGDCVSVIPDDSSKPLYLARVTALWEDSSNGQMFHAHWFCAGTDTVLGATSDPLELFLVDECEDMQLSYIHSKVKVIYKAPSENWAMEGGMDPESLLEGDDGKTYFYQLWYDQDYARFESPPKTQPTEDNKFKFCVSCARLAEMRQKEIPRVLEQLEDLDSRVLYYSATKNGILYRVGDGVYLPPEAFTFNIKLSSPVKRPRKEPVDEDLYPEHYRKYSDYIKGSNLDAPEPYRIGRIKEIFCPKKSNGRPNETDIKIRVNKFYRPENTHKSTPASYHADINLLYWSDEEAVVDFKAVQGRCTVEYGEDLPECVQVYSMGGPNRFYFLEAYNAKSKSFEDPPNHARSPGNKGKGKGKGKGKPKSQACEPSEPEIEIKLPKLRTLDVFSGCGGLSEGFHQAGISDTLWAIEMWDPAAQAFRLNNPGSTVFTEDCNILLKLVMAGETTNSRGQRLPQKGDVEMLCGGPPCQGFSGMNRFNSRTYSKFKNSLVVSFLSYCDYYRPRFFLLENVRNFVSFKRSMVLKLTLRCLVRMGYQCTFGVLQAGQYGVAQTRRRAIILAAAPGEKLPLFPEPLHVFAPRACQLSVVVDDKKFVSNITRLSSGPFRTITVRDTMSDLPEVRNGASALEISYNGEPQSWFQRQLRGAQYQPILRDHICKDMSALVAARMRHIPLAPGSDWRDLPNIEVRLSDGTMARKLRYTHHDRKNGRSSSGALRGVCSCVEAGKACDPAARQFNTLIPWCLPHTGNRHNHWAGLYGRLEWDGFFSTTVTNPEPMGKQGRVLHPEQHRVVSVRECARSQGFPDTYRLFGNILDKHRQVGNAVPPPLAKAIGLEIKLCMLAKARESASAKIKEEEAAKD

CCCCCC(O)C#CC(F)(F)Br (stereo not shown) [XB05]
change in reduced GSH [1]: depletion of reduced GSH | increase in GSH [2]: approximately 1.3 fold | increase in GSH [3]: ~2 fold | DNA damage (comet tails) [4]: comet tails | DNA damage (comet tails) [5]: comet tails | DNA damage (comet tails) [6]: no evidence of DNA damage | effect on DNMT1 activity [7]: inhibitory effects
